Where a name gives a salt, the structure may show the parent alone. Read-outs that look alike come from different tables or passages of the source.
Assays:
[1] = cited from earlier work
[2] = cited from earlier work; remark: listed apart in the source
[3] = Single dose study: intravenous cocaine, detection in oral fluid and urine by STC assay and GC/MS; type: in vivo, human
Protocol: A total of 10 volunteers received 10 or 25 mg of intravenous cocaine in a controlled environment. Oral fluid and urine specimens were collected over 0-130 hours after dose. Oral fluid specimens (400 µL) were added to the collection pad and diluted into the EPISCREEN™ Control Matrix. Samples were then tested using the STC assay and GC/MS. The results were platted over time for each patient. The oral fluid and urine results were compared using similar points on the curve. For all volunteers, regardless of the dose, the cocaine concentrations in oral fluid were detectable 5 minutes after dosing. For the subject who received 10 mg, oral fluid cocaine levels were no longer detectable after 25 minutes. For the remaining nine subjects who received 25 mg intravenous cocaine, drug levels in oral fluids were detectable after dosing for up to 3-6 hours. The length of time detectable drug concentrations were present in urine varied greatly. […] This variability could be attributed to a number of factors, including the volume of urine collected and the sensitivity of the cutoff used. In general, however, positive results were obtained in the subjects for up to 58 hours after dosing.

CN[C@@H](C)Cc1ccccc1 [Methamphetamine, methylamphetamine hydrochloride]
found unchanged in urine ([1]; acid urine): up to 76%
found unchanged in urine ([1]; alkaline urine): 2%
excreted in the urine unchanged ([1]; normal conditions): up to 43%
time detected in oral fluid ([1]; oral fluid, depends on dose and rate of saliva flow): ≤ 50 h
time detection in urine is successful following use ([1]; urine): 24 to 48 h

CCCCCc1cc(O)c2c(c1)OC(C)(C)[C@@H]1CCC(C)=C[C@@H]21 [THC, Tetrahydrocannabinol]
persistence in saliva ([2]; saliva, after use, depends on pH and rate of saliva flow): ≤ 14 h
persistence in urine ([2]; urine, depending upon the frequency of use): up to 30 days

COC(=O)[C@H]1[C@@H](OC(=O)c2ccccc2)C[C@@H]2CC[C@H]1N2C [Cocaine, benzyolmethylecgonine]
time after dosing at which cocaine concentrations in oral fluid were detectable ([3]; all volunteers, 10 or 25 mg intravenous): 5 min
time drug levels in oral fluids were detectable after dosing ([3]; nine subjects, 25 mg intravenous): 3 to 6 h
time after which oral fluid cocaine levels were no longer detectable ([3]; subject who received 10 mg intravenous): 25 min

— patent US7544468B2, “Simultaneous collection of DNA and non-nucleic analytes” (Orasure Technologies, Inc., priority 1997, dated 2009)
